Columns and labels:
[1] = system: BxPC-3 human pancreatic cancer cells; assay: subG1 cell cycle FACS apoptosis assay, BxPC-3 cells; format: cell-based; conditions: BxPC-3, Protocol A, about 24 hours, FIG. 10
Procedure: (§1) To transfer adherent cells (A375 and BxPC-3 cells) after culture, cells are washed twice with PBS. To detach the cells, the enzyme biotase is used according to the manufacturer's instructions. For this purpose, after washing with PBS, the cells are mixed with biotase (5 ml of biotase solution per 75 cm^2 surface of the cell culture bottles) and incubated for 5 min at 37 degrees Celsius, and the biotase is separated by centrifugation. Cells cultivated in suspension (MEC-1 and lymphocytes) were transferred by dilution. The cells are suspended in culture medium and counted, each time 1.5×10^5 cells/cm^2 are seeded in 48-well plates and cultured for between 1.5 and 24 hours at 37 degrees Celsius, 5% CO2. Peptides are pre-diluted from stock solution with culture medium and 200 μl of peptide solution added so that final concentrations of 30 to 500 μM peptide are present in at most 1% (v/v) DMSO. As control solutions, culture medium without peptide (DMSO-containing) in culture medium or etoposide solution is added. After incubating the cells for several hours, the cell supernatant is transferred to a FACS tube for each batch and, after washing the cells with PBS, the wash solution is added. Then the cells are incubated with 200 μl of biotase solution for 10 min, 37° C., the cells with the biotase are also transferred to the FACS tube and the cells are collected by centrifugation for 5 min. The cell pellet is suspended in 500 μl of serum-free culture medium, then 1.5 ml of cold 80% ethanol (ethanol/PBS-80/20, v/v, stored at −20° C.) is added, the FACS tubes sealed and stored at −20 degrees Celsius for 15 to 18 h. Thereafter, the cells are centrifuged for 5 minutes at 120 g, suspended after removal of the supernatant in 2 ml PBS and incubated at 37 degrees Celsius for 30 minutes. After re-centrifugation, the cells are suspended in 0.5 ml DAPI solution and incubated for 15 min at 20 degrees Celsius in the dark. Thereafter, the cells are stored dark for a maximum of four hours in an ice bath, followed by the FACS analysis.
The adherent cells (A375 and BxPC-3 cells and MDA-MB-231, respectively) are seeded 24 hours before induction in 6-well plates in culture medium. For this, the cells are washed with PBS, then incubated with trypsin/EDTA solution at 37 degrees Celsius and suspended in culture medium. The 6-well plates are loaded with 1×10^5 cells/cm^2 in culture medium and the cells incubated for 24 hours until induction with the peptides in the incubator. For induction, the peptides are diluted in fresh culture medium. As control solutions, culture medium without peptide (DMSO-containing) in culture medium or etoposide solution is added. The cells are washed with PBS. Thereafter the peptide solution in culture medium is added to the cells. After incubation in the incubator (37° C., 5% CO2) between 1.5 and 24 hours, the cell supernatant is transferred to 15 ml centrifuge tubes, the cells are washed with 0.75 ml PBS and then with 0.5 ml versene solution. Both washings are combined with the cell supernatant. The cells are then added with 0.5 ml of trypsin/EDTA solution and incubated at about 37° C. for at most 10 minutes until the cells detached. The cell suspension is combined with cell supernatant and washings and centrifuged at about 130 g for about 10 minutes. After removing the supernatant, the cells are suspended in 400 μl of cell culture medium (without serum) and mixed with 1.2 ml of 80% ethanol/20% PBS (v/v) and incubated for 1 to 7 days at −20° C. For analysis, the cells are centrifuged at 130 g for 10 min, suspended in 2 ml PBS, and centrifuged again for 5 min. The cells are suspended in 700 μl PI buffer and incubated for 10 min at 37° C. in the dark. Subsequently, the cells are stored dark for a maximum of four hours in an ice bath, then the FACS analysis is performed. […]

A375 melanoma cells = assay: subG1 cell cycle FACS apoptosis assay, A375 melanoma cells; format: cell-based, human; conditions: A375, Protocol A
Procedure: as §1
The adherent cells (A375 and BxPC-3 cells and MDA-MB-231, respectively) are seeded 24 hours before induction in 6-well plates in culture medium. For this, the cells are washed with PBS, then incubated with trypsin/EDTA solution at 37 degrees Celsius and suspended in culture medium. The 6-well plates are loaded with 1×10^5 cells/cm^2 in culture medium and the cells incubated for 24 hours until induction with the peptides in the incubator. For induction, the peptides are diluted in fresh culture medium. As control solutions, culture medium without peptide (DMSO-containing) in culture medium or etoposide solution is added. The cells are washed with PBS. Thereafter the peptide solution in culture medium is added to the cells. After incubation in the incubator (37° C., 5% CO2) between 1.5 and 24 hours, the cell supernatant is transferred to 15 ml centrifuge tubes, the cells are washed with 0.75 ml PBS and then with 0.5 ml versene solution. Both washings are combined with the cell supernatant. The cells are then added with 0.5 ml of trypsin/EDTA solution and incubated at about 37° C. for at most 10 minutes until the cells detached. The cell suspension is combined with cell supernatant and washings and centrifuged at about 130 g for about 10 minutes. After removing the supernatant, the cells are suspended in 400 μl of cell culture medium (without serum) and mixed with 1.2 ml of 80% ethanol/20% PBS (v/v) and incubated for 1 to 7 days at −20° C. For analysis, the cells are centrifuged at 130 g for 10 min, suspended in 2 ml PBS, and centrifuged again for 5 min. The cells are suspended in 700 μl PI buffer and incubated for 10 min at 37° C. in the dark. Subsequently, the cells are stored dark for a maximum of four hours in an ice bath, then the FACS analysis is performed.
The proportion of cells which have died was determined by two methods, both rely on the analysis of cells by flow cytometry, often called FACS analysis. […]

| Substance | apoptosis efficiency (subG1), comparison in words ([1]; 50 μM) | apoptosis efficiency (subG1), comparison in words ([1]; 100 μM) | apoptosis efficiency (subG1), comparison in words (A375 melanoma cells; 200 μM, about 24 hours, FIG. 4) | apoptosis efficiency (subG1), comparison in words ([1]; 200 μM) | apoptosis efficiency (subG1) in view of Peptide SEQ C1 ([1]; any concentration (50, 100, 200 μM)) | apoptosis level (subG1), comparison in words (A375 melanoma cells; 100 μM, FIG. 6) | apoptosis efficiency (subG1) in view of Peptide SEQ C1 (A375 melanoma cells; 100 μM, about 24 hours, FIG. 4) | apoptosis level (subG1) (A375 melanoma cells; 200 μM and above, incubation about 3 hours, FIG. 6) | apoptosis efficiency (subG1) in view of Peptide SEQ C1 (A375 melanoma cells; 200 μM, about 24 hours, FIG. 4) | apoptosis efficiency (subG1), comparison in words (A375 melanoma cells; 200 μM, incubation 1.5 h, 3 h and 6 h, FIG. 6) | apoptosis efficiency (subG1), comparison in words (A375 melanoma cells; 300 μM, all incubation times (1.5, 3, 6, 24 h), FIG. 6) | apoptosis efficiency (subG1), comparison in words (A375 melanoma cells; any concentration (50, 100, 200 μM), about 24 hours, FIG. 4) | apoptosis efficiency (subG1), comparison in words (A375 melanoma cells; 200 μM, incubation 24 h, FIG. 6) |
| --- | --- | --- | --- | --- | --- | --- | --- | --- | --- | --- | --- | --- | --- |
| k-s-q-t-v-k-k-w-m-v-v-y-f-r-k [SEQID No 29] | slight improvement over peptides SEQID NO 27 and SEQID NO 37 | higher efficiency at 100 μM in view of Peptides SEQID NO 27, SEQID NO 37 and SEQID NO 36 | higher efficiency at 200 μM in view of Peptide SEQID No 37 |  |  |  |  |  |  |  |  |  |  |
| k-s-q-t-v-q-k-w-m-v-v-y-f-r-k [SEQID No 36] | slight improvement over peptides SEQID NO 27 and SEQID NO 37 |  |  | clear improvement over peptides SEQID NO 27 and SEQID NO 29 | at least fourfold | slightly improved apoptosis level in view of peptide SEQID NO 27 | at least fivefold | high apoptosis level | at least tenfold | improvement over Peptides SEQID NO 37 and SEQID NO 27 | improvement with regard to all incubation times over Peptides SEQID NO 37 and SEQID NO 27 | clear improvement over Peptides SEQID NO 37 and SEQID NO 29 at any concentration |  |
| s-q-t-v-q-k-w-m-v-v-y-f-r-k [SEQID No 37] |  |  |  | clear improvement over peptides SEQID NO 27 and SEQID NO 29 |  | slightly improved apoptosis level in view of peptide SEQID NO 27 |  |  |  |  |  |  | best results |

— patent publication US20220160812A1, “A PHARMACEUTICALLY ACTIVE SUBSTANCE” (Cytopharma GmbH, priority 2019, published 2022)
